From patent US20090209517A1, “Use of 5H-dibenz/b,f/azepine-5-carboxamide derivatives in the treatment of neuropathic pain and neurological disorders” (priority 2006, published 2009)
Like-named read-outs stand apart in the source and are kept apart here.

Experiments:
Mice (NMRI) [1] = assay: Formalin paw test (licking time); format: in vivo; conditions: for Formalin paw test licking time (s) at 100 mg/kg: 100 mg/kg p.o., 60 min before test, vehicle-treated mice 81.0±13.8 s; for Effect on licking in the formalin test at 300 mg/kg: 300 mg/kg p.o.; for ED50: Mus musculus, po, doses 10-300 mg/kg, FIG. 1, read-out: ED50 for reduction of licking time in the formalin paw test
Procedure: The method, which detects analgesic/anti-inflammatory activity, follows that described by Wheeler-Aceto et al (see WHEELER-ACETO, H. & A., C. (1991), “Standardization of the rat paw formalin test for the evaluation of analgesics”, Psychopharmacology, 104, 35-44). Mice (NMRI) were given an intraplantar injection of 5% formalin (25 μl) into the posterior left paw. […] The time spent licking was counted for 15 minutes, beginning 15 minutes after injection of formalin. 10 mice were studied per group. The test was performed blind. ESL and CBZ were tested at the doses of 10, 30, 100 and 300 mg/kg p.o., and OXC and R-Lic were tested at the doses of 100 and 300 mg/kg p.o., administered 60 minutes before the test (i.e. 45 minutes before formalin), and compared with a vehicle control group in each experiment.

[2] = Rotarod test (motor impairment); format: in vivo, mice; conditions: male, mouse, in vivo, ip; intraperitoneally, 15 min after administration, 15 r.p.m.
Procedure: (§1) A normal mouse can maintain its equilibrium for long periods in the rotating rod. Mice were examined for motor toxicity in the rotating rod apparatus (Accelerator Rota-Rod [Jones & Roberts] 7650; Ugo Basile). The motor performance of naive mice (male Charles River, weighing 30 to 35 g) was evaluated 15 min after the administration of the compounds to be tested. Animals were placed on the rotating rod at a speed of 15 r.p.m. In a drug-treated mouse the neurological deficit is indicated by the inability of the animal to maintain equilibrium for 1 min in each of three trials. ESL, CBZ, OXC and R-Lic were dissolved in dimethyl sulfoxide (DMSO) (2 ml/kg) and given intraperitoneally (see ROGAWSKI, M. A., […], S., JONES, S. M., RICE, K. C., […], A. & MONN, J. A. (1991). Anticonvulsant activity of the low-affinity uncompetitive N-methyl-D-aspartate antagonist (+−)-5-aminocarbonyl-10,11-dihydro-5H-dibenzo[a,d]cyclohepten-5,10-imine (ADCI): comparison with the structural analogs dizocilpine (MK-801) and carbamazepine. J Pharmacol Exp Ther, 259, 30-37).

Mice (NMRI) [3] = conditions: mouse, in vivo
[4] = system: voltage-gated sodium channel (VGSC); conditions: cited from earlier work
[5] = system: naive mice (male Charles River); assay: Rotarod test (motor impairment); format: in vivo; conditions: intraperitoneally, 15 min after administration, 15 r.p.m.
Procedure: as §1

[6] = system: voltage-sensitive sodium channels; assay: [3H]BTX displacement binding to whole brain membranes; conditions: FIG. 3; for Degree of interaction with site 2 in voltage-gated sodium channels, relative to oxcarbazepine: [3H]-BTX displacement
Procedure: Blockade of voltage-sensitive sodium channels was studied by investigating [3H]batrachotoxinin A […] ([3H]BTX) displacement binding to whole brain membranes. Animals were decapitated and their brains quickly removed. Membrane preparation and binding assays were performed essentially as previously described (Shimidzu et al., 1997). Brains (without cerebellum) were homogenised in 10 vol 0.32 M sucrose, 1 mM EDTA, 1 mg/ml bovine serum albumin (BSA), 5 mM HEPES/TRIS pH 7.4 with a Teflon homogeniser (8 strokes at 400 r.p.m). After a 10 min centrifugation at 1,000 g the supernatants were centrifuged for 20 min at 39,000 g and pellets were homogenised with 20 vol or 40 vol Na+-free buffer, respectively for [3H]-batrachotoxinin A 20-alpha-benzoate ([3H]-BTX) binding assays. Na+-free buffer had the following composition (in mM): 130 choline chloride, 0.8 MgSO4, 5.4 KCl, 5.5 D-glucose, 50 HEPES/TRIS, pH 7.4. The homogenate was centrifuged for 20 min at 39,000 g and the resultant pellets were resuspended in Na+-free buffer. Protein concentration in membrane preparations was determined with BioRad Protein Assay (BioRad) using a standard curve of BSA (50-250 μg/ml). In [3H]-BTX binding assay experiments membrane preparations (200 μg protein) were incubated for 1 h at 37° C. with 10 nM (inhibition experiments) or 1-200 nM (saturation experiments) [3H]-BTX in Na+-free buffer containing 2 μM scorpion toxin, 1 μM tetrodotoxin and 1 mg/ml BSA in 96-well EIA/RIA plates (COSTAR). In inhibition experiments the reaction buffer contained also 3-1000 μM of test drugs. Nonspecific binding was determined in the presence of 300 μM veratridine. Nonspecific binding was 26±2% of total binding at 10 nM [3H-BTX]. After incubation the reaction was terminated by vacuum filtration (Brandel 96 harvester) through glassfiber filtermats (Wallac). […] Filtermats were dried, impregnated with MeltiLex A scintillation mixture (Wallac), inserted into plastic sample bags (Wallac) and radioactivity determined in a Microbeta 1224-510 counter (Wallac).

[7] = humans; subject-dependent; cited from earlier work

In the case of NC(=O)N1c2ccccc2C=Cc2ccccc21 [CBZ, carbamazepine, reference compound], the “Formalin paw test licking time (s) at 100 mg/kg” value (shortened to “Formalin paw test licking time”) (Mice (NMRI) [1]) is reported as 5.3 s, the “Effect on licking in the formalin test at 300 mg/kg” value (Mice (NMRI) [1]) is reported as “abolished licking” and the ED50 (Mice (NMRI) [1]) is reported as 38.2 mg/kg. The ED50 at 15 min [2] was 29.7 mg/kg, the “Sedation (%) at 300 mg/kg” value (Mice (NMRI) [3]; NMRI) was 100% and the “Sedation observed (mice sedated / mice given)” value (Mice (NMRI) [3]; NMRI) was 10/10.
With CC(=O)O[C@H]1Cc2ccccc2N(C(N)=O)c2ccccc21 [ESL, S-(−)-10-acetoxy-10,11-dihydro-5H-dibenz/b,f/azepine-5-carboxamide] the “Formalin paw test licking time” value (Mice (NMRI) [1]) was 33.6 s, the “Effect on licking in the formalin test at 300 mg/kg” value (Mice (NMRI) [1]) was “abolished licking” and the ED50 (Mice (NMRI) [1]) was 69.7 mg/kg. For the same compound, the ED50 at 15 min [2] was 139 mg/kg, the “Sedation (%) at 300 mg/kg” value (Mice (NMRI) [3]; NMRI) was 10% and the “Sedation observed (mice sedated / mice given)” value (Mice (NMRI) [3]; NMRI) was 1/10. For the same compound, the “Affinity for the resting state of the channel relative to CBZ” value [4] was “about 3 fold lower”.
For NC(=O)N1c2ccccc2C[C@@H](O)c2ccccc21 [R-Lic, R-licarbazepine], the “Formalin paw test licking time” value (Mice (NMRI) [1]) was 36.7 s, the “Rotarod test ED50 values” [5] was 97.4 mg/kg and the “Sedation (%) at 300 mg/kg” value (Mice (NMRI) [3]) was 20%. For the same compound, the “Ability to displace [3H]-BTX from its binding site in whole brain membranes, compared with oxcarbazepine” value [6] was “reduced ability to displaced”, the “Degree of interaction with site 2 in voltage-gated sodium channels, relative to oxcarbazepine” value [6] was “approximately 2.5 times less” and the “Proportion in which the enantiomer is formed as metabolite of oxcarbazepine” value [7] was ~20%.
For NC(=O)N1c2ccccc2CC(=O)c2ccccc21 [Oxc, oxcarbazepine, reference compound], the “Formalin paw test licking time” value (Mice (NMRI) [1]) was 1 s, the ED50 at 15 min [2] was 50.2 mg/kg and the “Sedation (%) at 300 mg/kg” value (Mice (NMRI) [3]; NMRI) was 90%.
For NC(=O)N1c2ccccc2C[C@H](O)c2ccccc21 [S-Lic, S-licarbazepine], the “Degree of interaction with site 2 in voltage-gated sodium channels, relative to oxcarbazepine” value [6] is listed as “approximately 2.5 times less” and the “Proportion in which the enantiomer is formed as metabolite of oxcarbazepine” value [7] is listed as “approximately 80%”.
